Results taken from ChEMBL document CHEMBL1201862, “PubChem BioAssay data set” (2004).
Active and inactive are the calls of the source.

Key:
Cytochrome P450 2C19 = Cytochrome P450 2C19 (Homo sapiens, UniProt P33261); assay: qHTS Assay for Inhibitors and Substrates of Cytochrome P450 2C19. [Related pubchem assays: 410 ]; assay type: ADME; settings: read-out: Potency
[1] = target: Mitogen-activated protein kinase 10 (Homo sapiens, UniProt P53779); assay: Dose response biochemical screening assay for inhibitors of c-Jun N-Terminal Kinase 3 (JNK3). [Related pubchem assays: 746 ]
Chain of Mitogen-activated protein kinase 10 (P53779 whole entry): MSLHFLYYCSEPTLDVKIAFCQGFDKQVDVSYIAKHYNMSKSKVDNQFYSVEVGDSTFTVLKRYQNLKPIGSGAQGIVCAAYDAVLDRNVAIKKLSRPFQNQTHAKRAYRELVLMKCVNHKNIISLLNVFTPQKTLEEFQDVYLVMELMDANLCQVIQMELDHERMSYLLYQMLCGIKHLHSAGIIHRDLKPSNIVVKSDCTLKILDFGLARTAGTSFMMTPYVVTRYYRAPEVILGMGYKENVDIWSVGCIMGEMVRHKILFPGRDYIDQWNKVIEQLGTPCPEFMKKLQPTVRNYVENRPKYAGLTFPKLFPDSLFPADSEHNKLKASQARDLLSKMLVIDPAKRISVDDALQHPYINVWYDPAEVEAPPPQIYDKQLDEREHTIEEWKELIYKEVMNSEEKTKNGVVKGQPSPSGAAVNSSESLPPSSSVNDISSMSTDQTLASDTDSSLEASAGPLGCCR

[2] = target: Nuclear receptor subfamily 5 group A member 2 (Homo sapiens, UniProt O00482); assay type: functional, cell-based;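 also: HEK293T cells transfected with LRH-1 and a StAR promoter luciferase reporter; potency for inhibitors that lower LRH-1 driven reporter light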
Chain of Nuclear receptor subfamily 5 group A member 2 (O00482 whole entry): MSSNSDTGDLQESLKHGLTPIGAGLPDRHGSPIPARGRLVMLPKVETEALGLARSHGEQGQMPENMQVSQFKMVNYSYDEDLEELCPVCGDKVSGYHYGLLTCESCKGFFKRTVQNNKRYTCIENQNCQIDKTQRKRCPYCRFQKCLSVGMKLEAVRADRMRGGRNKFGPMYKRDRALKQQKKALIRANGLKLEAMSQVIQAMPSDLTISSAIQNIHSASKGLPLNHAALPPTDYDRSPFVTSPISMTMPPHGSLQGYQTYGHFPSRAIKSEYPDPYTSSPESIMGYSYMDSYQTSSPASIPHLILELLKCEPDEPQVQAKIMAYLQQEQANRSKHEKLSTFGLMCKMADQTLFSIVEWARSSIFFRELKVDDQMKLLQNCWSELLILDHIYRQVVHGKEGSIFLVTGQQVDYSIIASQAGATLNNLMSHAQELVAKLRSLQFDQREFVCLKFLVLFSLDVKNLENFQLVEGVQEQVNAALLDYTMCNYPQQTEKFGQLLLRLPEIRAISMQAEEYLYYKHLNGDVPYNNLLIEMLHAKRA

Steroidogenic factor 1 = Steroidogenic factor 1 (Homo sapiens, UniProt Q13285); assay: Counterscreen for inverse agonists of the liver receptor homolog-1 (LRH-1; NR5A2): Luminescence-based cell-based high throughput dose response assay to identify inverse agonists of the Steroidogenic Factor 1 Nuclear Receptor (SF1; NR5A1).; assay type: functional
Chain of Steroidogenic factor 1 (Q13285 whole entry): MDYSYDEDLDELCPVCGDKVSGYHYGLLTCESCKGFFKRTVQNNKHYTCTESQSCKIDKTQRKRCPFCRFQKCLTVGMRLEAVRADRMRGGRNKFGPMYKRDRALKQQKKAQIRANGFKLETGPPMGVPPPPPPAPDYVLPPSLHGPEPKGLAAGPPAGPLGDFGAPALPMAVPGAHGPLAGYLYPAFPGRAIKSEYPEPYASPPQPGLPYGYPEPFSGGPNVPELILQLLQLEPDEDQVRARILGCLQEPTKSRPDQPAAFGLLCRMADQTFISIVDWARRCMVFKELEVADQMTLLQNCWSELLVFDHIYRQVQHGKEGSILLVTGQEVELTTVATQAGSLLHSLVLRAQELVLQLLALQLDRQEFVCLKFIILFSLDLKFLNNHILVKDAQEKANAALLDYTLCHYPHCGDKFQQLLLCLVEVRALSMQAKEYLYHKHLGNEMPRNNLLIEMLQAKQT

[3] = StAR promoter reporter inhibition counter-screen, dose response, counter-screen for LRH-1 inverse agonist project, cell-based, luminescence, luciferase reporter (AID 651969); assay type: functional
[4] = target: Sphingosine 1-phosphate receptor 2 (Homo sapiens, UniProt O95136); assay: Dose Response Cell Based Assay for Agonists of the S1P2 Receptor. [Related pubchem assays: 729, 736, 843 ]; assay type: functional
Chain of Sphingosine 1-phosphate receptor 2 (O95136 whole entry): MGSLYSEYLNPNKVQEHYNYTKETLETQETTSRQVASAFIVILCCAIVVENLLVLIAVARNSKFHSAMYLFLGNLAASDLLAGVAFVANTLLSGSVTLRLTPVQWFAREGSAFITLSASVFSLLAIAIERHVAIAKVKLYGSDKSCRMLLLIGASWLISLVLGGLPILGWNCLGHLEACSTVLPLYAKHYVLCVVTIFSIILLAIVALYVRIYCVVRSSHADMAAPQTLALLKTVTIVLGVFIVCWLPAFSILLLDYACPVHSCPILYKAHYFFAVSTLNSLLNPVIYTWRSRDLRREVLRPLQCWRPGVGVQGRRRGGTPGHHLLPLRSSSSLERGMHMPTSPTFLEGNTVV

[5] = target: T1, Calpain-2 catalytic subunit (Sus scrofa, UniProt P43367); assay: pig calpain II inhibitor potency, dose response, biochemical, fluorogenic peptide substrate (AID 1420); assay type: functional
T1 sequence (P43367 whole entry): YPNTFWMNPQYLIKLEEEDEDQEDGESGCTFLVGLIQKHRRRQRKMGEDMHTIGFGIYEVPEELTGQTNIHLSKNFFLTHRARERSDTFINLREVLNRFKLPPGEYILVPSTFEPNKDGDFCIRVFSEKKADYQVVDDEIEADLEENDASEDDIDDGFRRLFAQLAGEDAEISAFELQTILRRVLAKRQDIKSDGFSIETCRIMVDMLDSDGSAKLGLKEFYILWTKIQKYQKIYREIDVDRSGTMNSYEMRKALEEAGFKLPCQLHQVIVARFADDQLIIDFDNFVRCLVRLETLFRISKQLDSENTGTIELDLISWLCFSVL

[6] = target: Bifunctional protein GlmU (Mycobacterium tuberculosis, UniProt P9WMN3); assay: Inhibitors of Mycobacterial Glucosamine-1-phosphate acetyl transferase (GlmU). Secondary screen.; parameters: species or system Mycobacterium tuberculosis H37Rv
Chain of Bifunctional protein GlmU (P9WMN3 whole entry): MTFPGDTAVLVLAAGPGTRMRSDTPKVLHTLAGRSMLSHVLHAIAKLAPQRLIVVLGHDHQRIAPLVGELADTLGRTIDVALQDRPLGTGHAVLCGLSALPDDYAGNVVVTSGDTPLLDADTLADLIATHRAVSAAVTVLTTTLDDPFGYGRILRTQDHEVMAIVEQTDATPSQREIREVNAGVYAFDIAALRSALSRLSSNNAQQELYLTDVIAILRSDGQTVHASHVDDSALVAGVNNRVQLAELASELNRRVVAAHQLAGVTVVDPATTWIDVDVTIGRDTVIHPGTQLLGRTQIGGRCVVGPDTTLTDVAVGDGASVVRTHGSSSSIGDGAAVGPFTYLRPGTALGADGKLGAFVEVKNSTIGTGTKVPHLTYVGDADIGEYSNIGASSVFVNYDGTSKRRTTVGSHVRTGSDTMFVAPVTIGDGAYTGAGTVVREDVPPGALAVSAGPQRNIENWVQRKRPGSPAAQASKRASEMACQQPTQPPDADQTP

Caspase-3 = target: T2, Caspase-3 (Homo sapiens, UniProt P42574); assay type: functional;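 also: Dose-response selectivity test against caspase-3 for candidate inhibitors of sentrin-specific proteases (SENPs)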
T2 sequence (P42574 whole entry): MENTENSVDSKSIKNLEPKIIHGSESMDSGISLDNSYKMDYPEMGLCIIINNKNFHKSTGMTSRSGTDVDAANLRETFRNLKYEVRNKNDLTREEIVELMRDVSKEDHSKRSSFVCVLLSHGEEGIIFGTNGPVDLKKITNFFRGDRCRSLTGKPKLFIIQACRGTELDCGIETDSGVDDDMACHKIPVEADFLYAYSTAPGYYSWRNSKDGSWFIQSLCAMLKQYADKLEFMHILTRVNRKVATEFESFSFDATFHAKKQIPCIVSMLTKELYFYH

[7] = target: T3, Sentrin-specific protease 7 (Homo sapiens, UniProt Q9BQF6); assay type: functional;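 also: Luminescence-based dose-response confirmation of ultra-high-throughput screening hits, measuring inhibition of SENP7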
T3 sequence (Q9BQF6 whole entry): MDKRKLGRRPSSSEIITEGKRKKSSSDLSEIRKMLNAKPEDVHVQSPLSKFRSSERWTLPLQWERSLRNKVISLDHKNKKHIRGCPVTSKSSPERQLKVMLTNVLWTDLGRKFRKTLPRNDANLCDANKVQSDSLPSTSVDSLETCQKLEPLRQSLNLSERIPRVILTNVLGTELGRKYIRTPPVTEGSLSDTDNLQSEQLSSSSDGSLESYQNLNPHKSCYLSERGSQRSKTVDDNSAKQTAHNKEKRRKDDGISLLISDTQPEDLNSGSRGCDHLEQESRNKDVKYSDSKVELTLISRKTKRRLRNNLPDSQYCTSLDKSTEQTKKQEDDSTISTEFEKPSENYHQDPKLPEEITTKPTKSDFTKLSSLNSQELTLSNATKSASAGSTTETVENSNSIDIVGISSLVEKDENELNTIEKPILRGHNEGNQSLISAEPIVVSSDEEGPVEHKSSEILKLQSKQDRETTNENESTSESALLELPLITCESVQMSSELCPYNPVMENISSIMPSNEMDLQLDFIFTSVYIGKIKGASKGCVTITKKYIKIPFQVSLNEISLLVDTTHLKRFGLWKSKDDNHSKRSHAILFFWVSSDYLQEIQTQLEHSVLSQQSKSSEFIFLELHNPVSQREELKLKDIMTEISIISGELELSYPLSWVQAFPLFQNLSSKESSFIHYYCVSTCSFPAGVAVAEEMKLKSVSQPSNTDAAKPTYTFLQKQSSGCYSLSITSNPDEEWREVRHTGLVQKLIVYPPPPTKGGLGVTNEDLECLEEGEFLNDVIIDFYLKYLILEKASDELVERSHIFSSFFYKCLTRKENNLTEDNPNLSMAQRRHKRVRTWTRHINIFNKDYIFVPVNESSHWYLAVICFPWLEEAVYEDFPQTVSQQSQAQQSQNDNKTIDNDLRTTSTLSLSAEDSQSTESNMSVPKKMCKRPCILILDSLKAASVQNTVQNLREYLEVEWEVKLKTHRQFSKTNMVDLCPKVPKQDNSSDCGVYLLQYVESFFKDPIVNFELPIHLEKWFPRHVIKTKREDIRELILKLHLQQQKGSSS

[8] = target: T4, Sentrin-specific protease 6 (Homo sapiens, UniProt Q9GZR1); assay type: functional;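 also: Luminescence-based dose-response confirmatory assay of SENP6 inhibition, following up an ultra-high-throughput screen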
T4 sequence (Q9GZR1 whole entry): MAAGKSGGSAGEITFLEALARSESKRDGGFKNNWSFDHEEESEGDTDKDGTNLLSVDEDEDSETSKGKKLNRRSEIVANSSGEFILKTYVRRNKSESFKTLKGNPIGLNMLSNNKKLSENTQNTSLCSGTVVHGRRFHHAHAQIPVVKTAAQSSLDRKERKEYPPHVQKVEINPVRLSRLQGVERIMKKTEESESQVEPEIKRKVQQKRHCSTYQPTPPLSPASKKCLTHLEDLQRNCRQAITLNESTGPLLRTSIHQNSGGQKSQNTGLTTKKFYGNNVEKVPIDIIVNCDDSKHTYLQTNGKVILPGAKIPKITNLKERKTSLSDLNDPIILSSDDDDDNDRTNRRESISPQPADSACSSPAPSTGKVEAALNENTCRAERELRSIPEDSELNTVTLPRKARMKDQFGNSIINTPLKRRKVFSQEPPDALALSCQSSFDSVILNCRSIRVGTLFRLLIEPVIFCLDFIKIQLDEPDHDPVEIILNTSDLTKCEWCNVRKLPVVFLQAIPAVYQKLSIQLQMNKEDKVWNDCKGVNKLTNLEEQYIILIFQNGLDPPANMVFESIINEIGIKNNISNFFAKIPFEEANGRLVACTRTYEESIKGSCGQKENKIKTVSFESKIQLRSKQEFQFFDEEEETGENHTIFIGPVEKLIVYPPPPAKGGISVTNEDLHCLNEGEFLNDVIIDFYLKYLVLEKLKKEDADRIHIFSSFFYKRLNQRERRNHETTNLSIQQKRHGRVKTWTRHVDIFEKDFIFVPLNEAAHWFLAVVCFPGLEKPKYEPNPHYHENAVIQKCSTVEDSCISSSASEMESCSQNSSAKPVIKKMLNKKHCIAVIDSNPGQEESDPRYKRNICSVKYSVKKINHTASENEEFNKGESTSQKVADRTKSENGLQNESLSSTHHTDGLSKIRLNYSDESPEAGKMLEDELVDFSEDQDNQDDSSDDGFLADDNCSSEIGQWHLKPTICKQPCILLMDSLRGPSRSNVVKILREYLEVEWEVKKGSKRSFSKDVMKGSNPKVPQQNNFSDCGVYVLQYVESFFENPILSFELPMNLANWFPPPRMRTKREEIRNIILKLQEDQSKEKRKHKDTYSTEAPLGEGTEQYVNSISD

[9] = target: T5, Sentrin-specific protease 8 (Homo sapiens, UniProt Q96LD8); assay type: functional;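 also: luminescence read-out of SENP8 inhibition, dose-response confirmation following an ultra-high-throughput screen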
T5 sequence (Q96LD8 whole entry): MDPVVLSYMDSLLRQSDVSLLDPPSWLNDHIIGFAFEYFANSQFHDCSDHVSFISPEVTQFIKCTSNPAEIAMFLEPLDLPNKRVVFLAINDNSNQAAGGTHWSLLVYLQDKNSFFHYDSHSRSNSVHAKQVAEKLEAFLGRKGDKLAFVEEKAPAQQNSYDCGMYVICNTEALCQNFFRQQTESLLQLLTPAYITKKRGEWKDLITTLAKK

[10] = Concentration-dependent survival of SW480 colon cancer line, luminescence detection with CellTiter-Glo, half-maximal inhibitory concentration (AID 1117338); assay type: functional
[11] = RKO cell viability reduction, dose response, CellTiter-Glo luminescence (AID 1117322); assay type: functional
[12] = cytotoxicity toward HCT116 cells – cell-based, CellTiter-Glo luminescence, IC50, dose response (AID 1117332); assay type: functional; settings: HCT-116
[13] = SNU-C1 cell viability reduction, dose response, CellTiter-Glo luminescence (AID 1117323); assay type: functional, cell-based
[14] = cytotoxicity toward Colo320 cells – cell-based, CellTiter-Glo luminescence, IC50, dose response (AID 1117334); assay type: functional; settings: COLO 320
[15] = cytotoxicity toward HT-29 cells – cell-based, CellTiter-Glo luminescence, IC50, dose response (AID 1117330); assay type: functional
[16] = CellTiter-Glo luminescent dose response of DLD-1 viability loss (AID 1117352); assay type: functional
[17] = HCT116 cell viability decrease, GSK3B pretreatment – CellTiter-Glo, IC50, dose response (AID 1117339); assay type: functional; settings: HCT-116

Chain of Cytochrome P450 2C19 (P33261 whole entry): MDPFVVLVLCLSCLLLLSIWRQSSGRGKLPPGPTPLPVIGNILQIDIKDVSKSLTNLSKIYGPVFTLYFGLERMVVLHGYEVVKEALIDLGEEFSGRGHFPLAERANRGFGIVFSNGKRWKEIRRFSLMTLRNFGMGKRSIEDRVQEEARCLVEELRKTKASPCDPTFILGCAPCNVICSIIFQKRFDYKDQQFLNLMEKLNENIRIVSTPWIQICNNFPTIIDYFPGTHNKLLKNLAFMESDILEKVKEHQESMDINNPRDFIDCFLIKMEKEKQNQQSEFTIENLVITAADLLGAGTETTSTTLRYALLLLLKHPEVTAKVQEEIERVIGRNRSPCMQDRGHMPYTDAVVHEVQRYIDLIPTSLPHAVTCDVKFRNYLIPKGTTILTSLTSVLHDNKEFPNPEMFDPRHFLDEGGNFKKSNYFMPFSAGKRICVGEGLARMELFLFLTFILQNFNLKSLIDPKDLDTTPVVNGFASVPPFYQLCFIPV

In the case of `COc1cccc(NC(=O)/C=C\c2ccc(Cl)cc2)c1`, the AC50 (Cytochrome P450 2C19) is reported as 3.98 µM (inconclusive).
In the case of `CCn1c(SCC(=O)Nc2ccc(Cl)cc2)nnc1C1CC1`, the IC50 [1] is reported as > 93.1 µM (not active), the IC50 [2] is reported as 35.9 µM (inactive) and the IC50 (Steroidogenic factor 1) is reported as 6.13 µM (active). The IC50 [3] was 35.9 µM (inactive).
With `C=CCn1c(N)cc(=O)nc1SCC(=O)Nc1ccccc1` the EC50 [4] was > 50 µM (not active).
For `O=C(O)c1cc(C(=O)O)cc(-c2ccc(/C=c3/sc4nc5ccccc5n4c3=O)o2)c1`, the IC50 [5] was 22 µM (not active) and the IC50 [6] was 34.1 µM (active).
For `C/C(=N\Cc1ccco1)c1c(C)nn(-c2nc3ccccc3s2)c1O`, the IC50 [1] was > 93.1 µM (not active), the IC50 (Caspase-3) was 3.72 µM (active) and the IC50 [7] was 3.48 µM (active). For the same molecule, the IC50 [8] was 9.47 µM (active) and the IC50 [9] was 11.5 µM (active).
In the case of `COc1cc2c(cc1OC)C1=C(C#N)CC/C(=N\C(=O)c3ccc(Cl)cc3)N1CC2`, the EC50 [4] is reported as 1.61 µM (active).
In the case of `O=C1NCCN1CCN1CCC(c2cn(-c3ccc(F)cc3)c3ccc(Cl)cc23)CC1` [SERTINDOLE], the IC50 [10] is reported as 2.81 µM (active), the IC50 [11] is reported as 2.6 µM (active) and the IC50 [12] is reported as 2.16 µM (active). For the same molecule, the IC50 [13] was 1.43 µM (active), the IC50 [14] was 3.7 µM (active) and the IC50 [15] was 2.86 µM (active). For the same molecule, the IC50 [16] was 5.62 µM (inactive) and the IC50 [17] was 3.52 µM (active).
